Laboratory results published in US8663679B2, “Compositions for improving breast health in women” (Abbott Laboratories, priority 2004, dated 2014).

How the values were obtained:
[1] = tested on: MCF-7 human breast adenocarcinoma cells; test: Cell proliferation assay (ViaLight Plus, ATP); assay type: cell-based; conditions: MCF7, 72 hours
Description: (§1) MCF-7 human breast adenocarcinoma cells (ATCC) are maintained in Eagle's Minimal Essential Medium supplemented with 10% FBS (Gibco-BRL), 1% Penicillin-Streptomycin-Glutamine and 10 nM 17β Estradiol, (Sigma). MCF-10A cells, human fibrocystic mammary gland epithelial cells (ATCC) and HMEC, human mammary gland epithelial cells (Cambrex) are maintained in mammary epithelial complete growth medium (MEGM) containing the Bullet Kit (Cambrex Bio Sciences).
(§2) Cells are seeded on 24-well plates at 20-25×10^3 cells/well in 0.4-0.5 ml of their respective media. […] Cells with no treatment are the controls. Plates are incubated at 37° C. for 72 hours. Cell proliferation is measured using ViaLight Plus Cell Proliferation and Cytotoxicity BioAssay Kit by quantifying the amount of ATP released from the cells according to manufacture's protocol.
Cell culture plates are warmed up to room temperature for 5 minutes and 200 μl of cell lysis reagent is added to each well. After incubation at room temperature for 10 minutes with intermediate swirling of the plate, 100 μl of the sample from each well is loaded in triplicate in a white 96-well microtiter plate, Dynex Microlite 1+, for vialight assay. The ATP monitoring reagent (AMR) is reconstituted in assay buffer and allowed to equilibrate for 15 minutes at room temperature.
(§3) The luminometer and associated WinGlow software program are set up and primed with reconstituted AMR. The plate is placed in the luminometer and 100 μl of reconstituted AMR is dispensed per well. The luminometer is programmed to take one second integrated reading of each appropriate well. The plates are incubated for 2 minutes at room temperature in the luminometer and one second integrated reading of each appropriate well is initiated.
Average RLU (relative luciferase unit) values for each set of triplicate wells, using Winglow software and Microsoft Excel, is calculated and graphed. Effects of various treatments are calculated by plotting the percent of inhibition of cell proliferation versus the concentration of treatment. Percent inhibition of cell proliferation is calculated using the formula: […]

[2] = tested on: MCF-10A cells, human fibrocystic mammary gland epithelial cells; test: Cell proliferation assay (ViaLight Plus, ATP); assay type: cell-based; conditions: MCF10A, 72 hours
Description: Cells with no treatment are the controls. Plates are incubated at 37° C. for 72 hours.

[3] = tested on: HMEC, human mammary gland epithelial cells; conditions: 72 hours
Description: as §1
as §2, with “protocol. […]” for “protocol.”
as §3, with “The plate is placed in the luminometer and 100 μl of reconstituted AMR is dispensed per well.” left out
Average RLU (relative luciferase unit) values for each set of triplicate wells, using Winglow software and Microsoft Excel, is calculated and graphed. […]

thyroid follicular cells = conditions: well known; cited from earlier work
MCF10A cells = conditions: GLA 0, 50, 100 μM, 48 hours
Description: (§4) Cells are grown in T75 flasks up to 70-80% confluence before being treated with desired fatty acids conjugated with BSA for 48 hours at 37° C. at various concentrations (0, 50, 100 μM). After incubation, the cells are trypsinized from the flask and the cell suspensions are pooled and collected in 50 ml tubes. Each cell type and each treatment is done in duplicate. Cell suspensions are then centrifuged at 1000 rpm for 10 minutes each. Supernatants are discarded and the pellets suspended in phosphate buffered saline. The cells are washed twice with 10 ml of PBS (Phosphate buffer saline) at each step and centrifuged. The pellets are re-suspended in 10 ml of PBS and counted and the cell numbers are normalized for the experiment. The cell suspension is centrifuged again and the pellets stored at −80° C. until lipid extraction is performed.
(§5) Briefly, each cell pellet from a 50 ml culture is vortexed with 6 ml of methanol, followed by the addition of 12 ml of chloroform and 100 μg of tridecanoin (as internal standard). The mixture is incubated at 4° C. overnight. The chloroform layer is extracted and filtered through a Whatman filter with one gram of anhydrous sodium sulfate to remove particulates and residual water. Organic solvents are evaporated to dryness at 40° C. under a stream of nitrogen. […]

MCF7 cells = conditions: MCF7, GLA 0, 50, 100 μM, 48 hours
Description: as §4, §5

Compound | anti-proliferative activity on breast cancer cells [1] | anti-proliferative activity on fibrocystic cells [2] | anti-proliferative activity on normal breast cells [3] | proliferation of thyroid follicular cells (thyroid follicular cells) | production of arachidonic acid (MCF10A cells) | production of arachidonic acid (MCF7 cells)
CCCCC/C=C\C/C=C\C/C=C\CC(I)C1CCCC(=O)O1 (stereo not drawn) [iodo-arachidonate, 6-iodo-5-hydroxy-eicosatrienoic acid-delta-lactone] | significant inhibitory effect |  |  |  |  | 
O=[Se](=O)([O-])[O-].[Na+].[Na+] [Selenium, sodium selenate] | anti-proliferative activity | anti-proliferative activity | no relative effect |  |  | 
[I-].[K+] [Iodine, potassium iodide] | does not show any anti-proliferative effect | does not show any anti-proliferative effect |  | inhibits proliferation |  | 
CCCCC/C=C\C/C=C\C/C=C\CCCCC(=O)O [GLA, (Z,Z,Z)-6,9,12-octadecatrienoic acid] | no effect | significant anti-proliferative activity | no effect |  | increased production of arachidonic acid | increased production of arachidonic acid
